Data taken from the supplement of paper PMC4862054.

system: HCC1937; assay: normalised response (% of control), CellTox Green; higher = less cell death (100 = DMSO, 0 = benzethonium chloride kill control); details: incubation time: 72 h
In short: (§1)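 Each value is the plate-normalised signal at one concentration of the series. Breast cancer cell lines (20 µl suspension) were incubated 72 h in 384-well plates with compound at 5 concentrations in 10-fold steps over a compound-specific 10,000-fold range. CellTox Green and then CellTiter-Glo were read, and each plate was scaled to 0.1 % DMSO (100) and a positive kill control (0).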

Row | Compound | normalised response
1 | NS(=O)(=O)OC[C@@H]1C[C@@H](n2ccc3c(N[C@H]4CCc5ccccc54)ncnc32)C[C@@H]1O [Pevonedistat] (10000 nM) | 107%
2 | CN(C)C[C@@H]1CCn2cc(c3ccccc32)C2=C(C(=O)NC2=O)c2cn(c3ccccc23)CCO1 [Ruboxistaurin] (10000 nM) | 33%
3 | C[C@]12CC[C@H](O)CC1=CC[C@@H]1[C@@H]2CC[C@]2(C)C(c3cccnc3)=CC[C@@H]12 [Abiraterone] (5000 nM) | 120%
4 | CC(C)c1c(C(=O)Nc2ccccc2)c(-c2ccccc2)c(-c2ccc(F)cc2)n1CC[C@@H](O)C[C@@H](O)CC(=O)O [Atorvastatin] (10000 nM) | 92.4%
5 | Cn1c(=O)n(-c2ccc(C(C)(C)C#N)cc2)c2c3cc(-c4cnc5ccccc5c4)ccc3ncc21 [Dactolisib] (1000 nM) | 45.6%
6 | Nc1ncnc2c1c(COc1cccc(Cl)c1)nn2C1CCOCC1 (10000 nM) | 103%
7 | O=C1NC(=O)[C@@H](c2cn3c4c(cccc24)CCC3)[C@@H]1c1c[nH]c2ccccc12 [Tivantinib] (1000 nM) | 84.5%
8 | O=C(O)CCCc1ccc(N(CCCl)CCCl)cc1 [Chlorambucil] (10000 nM) | 105%

system: CAL-51; assay: as above; details: incubation time: 72 h
In short: as §1

Row | Compound | normalised response
9 | NS(=O)(=O)OC[C@@H]1C[C@@H](n2ccc3c(N[C@H]4CCc5ccccc54)ncnc32)C[C@@H]1O [Pevonedistat] (10000 nM) | -20.5%
10 | CN(C)C[C@@H]1CCn2cc(c3ccccc32)C2=C(C(=O)NC2=O)c2cn(c3ccccc23)CCO1 [Ruboxistaurin] (10000 nM) | -50.2%
11 | C[C@]12CC[C@H](O)CC1=CC[C@@H]1[C@@H]2CC[C@]2(C)C(c3cccnc3)=CC[C@@H]12 [Abiraterone] (5000 nM) | 96.6%
12 | CC(C)c1c(C(=O)Nc2ccccc2)c(-c2ccccc2)c(-c2ccc(F)cc2)n1CC[C@@H](O)C[C@@H](O)CC(=O)O [Atorvastatin] (10000 nM) | -23.5%
13 | Cn1c(=O)n(-c2ccc(C(C)(C)C#N)cc2)c2c3cc(-c4cnc5ccccc5c4)ccc3ncc21 [Dactolisib] (1000 nM) | 81.3%
14 | Nc1ncnc2c1c(COc1cccc(Cl)c1)nn2C1CCOCC1 (10000 nM) | 109%
15 | O=C1NC(=O)[C@@H](c2cn3c4c(cccc24)CCC3)[C@@H]1c1c[nH]c2ccccc12 [Tivantinib] (1000 nM) | 26.8%
16 | O=C(O)CCCc1ccc(N(CCCl)CCCl)cc1 [Chlorambucil] (10000 nM) | 81.7%

system: DU-4475; assay: as above; details: incubation time: 72 h
In short: as §1

Row | Compound | normalised response
17 | NS(=O)(=O)OC[C@@H]1C[C@@H](n2ccc3c(N[C@H]4CCc5ccccc54)ncnc32)C[C@@H]1O [Pevonedistat] (10000 nM) | 73.8%
18 | CN(C)C[C@@H]1CCn2cc(c3ccccc32)C2=C(C(=O)NC2=O)c2cn(c3ccccc23)CCO1 [Ruboxistaurin] (10000 nM) | 92.1%
19 | C[C@]12CC[C@H](O)CC1=CC[C@@H]1[C@@H]2CC[C@]2(C)C(c3cccnc3)=CC[C@@H]12 [Abiraterone] (5000 nM) | 111%
20 | CC(C)c1c(C(=O)Nc2ccccc2)c(-c2ccccc2)c(-c2ccc(F)cc2)n1CC[C@@H](O)C[C@@H](O)CC(=O)O [Atorvastatin] (10000 nM) | 98%
21 | Cn1c(=O)n(-c2ccc(C(C)(C)C#N)cc2)c2c3cc(-c4cnc5ccccc5c4)ccc3ncc21 [Dactolisib] (1000 nM) | 102%
22 | Nc1ncnc2c1c(COc1cccc(Cl)c1)nn2C1CCOCC1 (10000 nM) | 103%
23 | O=C1NC(=O)[C@@H](c2cn3c4c(cccc24)CCC3)[C@@H]1c1c[nH]c2ccccc12 [Tivantinib] (1000 nM) | 93.6%
24 | O=C(O)CCCc1ccc(N(CCCl)CCCl)cc1 [Chlorambucil] (10000 nM) | 98.1%

system: MDA-MB-436; assay: as above; details: incubation time: 72 h
In short: as §1

Row | Compound | normalised response
25 | NS(=O)(=O)OC[C@@H]1C[C@@H](n2ccc3c(N[C@H]4CCc5ccccc54)ncnc32)C[C@@H]1O [Pevonedistat] (10000 nM) | 28.2%
26 | CN(C)C[C@@H]1CCn2cc(c3ccccc32)C2=C(C(=O)NC2=O)c2cn(c3ccccc23)CCO1 [Ruboxistaurin] (10000 nM) | -6.73%
27 | C[C@]12CC[C@H](O)CC1=CC[C@@H]1[C@@H]2CC[C@]2(C)C(c3cccnc3)=CC[C@@H]12 [Abiraterone] (5000 nM) | 111%
28 | CC(C)c1c(C(=O)Nc2ccccc2)c(-c2ccccc2)c(-c2ccc(F)cc2)n1CC[C@@H](O)C[C@@H](O)CC(=O)O [Atorvastatin] (10000 nM) | 83%
29 | Cn1c(=O)n(-c2ccc(C(C)(C)C#N)cc2)c2c3cc(-c4cnc5ccccc5c4)ccc3ncc21 [Dactolisib] (1000 nM) | 112%
30 | Nc1ncnc2c1c(COc1cccc(Cl)c1)nn2C1CCOCC1 (10000 nM) | 79.2%
31 | O=C1NC(=O)[C@@H](c2cn3c4c(cccc24)CCC3)[C@@H]1c1c[nH]c2ccccc12 [Tivantinib] (1000 nM) | 68.1%
32 | O=C(O)CCCc1ccc(N(CCCl)CCCl)cc1 [Chlorambucil] (10000 nM) | 66.2%

system: Hs578T; assay: as above; details: incubation time: 72 h
In short: as §1

Row | Compound | normalised response
33 | NS(=O)(=O)OC[C@@H]1C[C@@H](n2ccc3c(N[C@H]4CCc5ccccc54)ncnc32)C[C@@H]1O [Pevonedistat] (10000 nM) | 91%
34 | CN(C)C[C@@H]1CCn2cc(c3ccccc32)C2=C(C(=O)NC2=O)c2cn(c3ccccc23)CCO1 [Ruboxistaurin] (10000 nM) | 62.9%
35 | C[C@]12CC[C@H](O)CC1=CC[C@@H]1[C@@H]2CC[C@]2(C)C(c3cccnc3)=CC[C@@H]12 [Abiraterone] (5000 nM) | 116%
36 | CC(C)c1c(C(=O)Nc2ccccc2)c(-c2ccccc2)c(-c2ccc(F)cc2)n1CC[C@@H](O)C[C@@H](O)CC(=O)O [Atorvastatin] (10000 nM) | 7.6%
37 | Cn1c(=O)n(-c2ccc(C(C)(C)C#N)cc2)c2c3cc(-c4cnc5ccccc5c4)ccc3ncc21 [Dactolisib] (1000 nM) | 101%
